Experimental data from publication PMC8993905, “Functional control of a 0.5 MDa TET aminopeptidase by a flexible loop revealed by MAS NMR” (Nature Communications, 2022).

How the values were obtained:
[1] = target: T1, TET2 (Pyrococcus horikoshii, UniProt O59196); test: MAS NMR 1H-15N peak doubling (G92, D94, H323); format: binding; conditions: active site; 50% (vol/vol) MPD, pH 7.6, ca. 28 °C; slow exchange
T1 construct: gene frvX; full length, 353 residues per subunit, pET41c in E. coli BL21(DE3), no tag mentioned (heat step, Resource Q, Superdex 200), 39 kDa subunit, 468 kDa homododecamer, two Zn per active site

[2] = target: T1, TET2; test: MAS NMR chemical-shift perturbation; format: binding; conditions: active site, non-covalent; isotope-labelled protein, ca. 28 °C
[3] = target: T2, TET2 (Pyrococcus horikoshii, UniProt O59196, H123F); test: MAS NMR 1H-15N chemical-shift perturbation; format: binding; conditions: active site, non-covalent; isotope-labelled protein, ca. 28 °C
T2 construct: gene frvX; full length, 353 residues per subunit, pET41c in E. coli BL21(DE3), no tag mentioned (heat step, Resource Q, Superdex 200), 39 kDa subunit, 468 kDa homododecamer, two Zn per active site

[4] = target: T1, TET2; test: H-Leu-pNA hydrolysis, absorbance at […] nm; format: biochemical; conditions: 6.4 mM H-Leu-pNA, 1, 5 or 20 mM histidine, pH 7.5, 50 °C
[5] = target: T3, TET2 (Pyrococcus horikoshii, UniProt O59196, H123Y); test: H-Leu-pNA hydrolysis, absorbance at […] nm; format: biochemical; conditions: 6.4 mM H-Leu-pNA, 1, 5 or 20 mM histidine, pH 7.5, 50 °C
T3 construct: gene frvX; full length, 353 residues per subunit, pET41c in E. coli BL21(DE3), no tag mentioned (heat step, Resource Q, Superdex 200), 39 kDa subunit, 468 kDa homododecamer, two Zn per active site
T3 sequence (O59196 whole entry H123Y): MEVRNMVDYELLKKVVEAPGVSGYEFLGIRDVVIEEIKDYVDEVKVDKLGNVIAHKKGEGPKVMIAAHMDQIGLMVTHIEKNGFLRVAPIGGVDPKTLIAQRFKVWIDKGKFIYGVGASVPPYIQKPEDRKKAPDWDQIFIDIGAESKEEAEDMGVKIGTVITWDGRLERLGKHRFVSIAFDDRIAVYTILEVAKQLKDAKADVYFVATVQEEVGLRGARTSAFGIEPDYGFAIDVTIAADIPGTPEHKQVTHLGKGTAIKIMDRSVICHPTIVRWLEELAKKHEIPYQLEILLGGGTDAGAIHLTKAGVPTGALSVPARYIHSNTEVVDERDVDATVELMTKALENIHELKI

T1 sequence (O59196 whole entry): as the sequence (O59196 whole entry H123Y) above, with Y123H counted along it
T2 sequence (O59196 whole entry H123F): as the sequence (O59196 whole entry H123Y) above, with Y123F counted along it

SMILES: CC(O)CC(C)(C)O (centres unmarked) [2-methyl-2,4-pentanediol]
- MAS NMR 1H-15N peak doubling (G92, D94, H323) [1]: 2-methyl-2,4-pentanediol (MPD), a common crystallization agent used also to obtain solid-state NMR samples, interacts

SMILES: CC(C)C[C@@H](N)[C@H](O)C(=O)N[C@H](C(=O)N[C@H](C(=O)N[C@@H](CC(=O)O)C(=O)O)C(C)C)C(C)C [amastatin]
- MAS NMR chemical-shift perturbation [2]: MAS NMR experiments reveal the chemical-shift perturbations induced by this tightly bound inhibitor
- MAS NMR 1H-15N chemical-shift perturbation [3]: We ensured that amastatin tightly binds to the H123F mutant

SMILES: N[C@@H](Cc1c[nH]cn1)C(=O)O [histidine]
- activity with added free histidine [4]: abolishes the function of WT and mutant TET2
- activity with added free histidine [5]: addition of free His not only does not increase the activity, but abolishes the function
